Assay results taken from patent US9265253B2, “Use of macrocyclic picolinamides as fungicides” (DOW AGROSCIENCES LLC, priority 2013, dated 2016).
Where two headings read alike, the source gives them in different places.

Columns and labels:
[1] = tested on: Mycosphaerella graminicola; Anamorph: Septoria tritici; test: Leaf Blotch of Wheat (SEPTTR) disease control; format: in vivo; conditions: Zymoseptoria tritici
Outline: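 Wheat seedlings (Yuma, first leaf emerged) sprayed to run-off with compound in acetone/water with 110 ppm Triton X-100, or track-sprayed as EC with 0.1% Trycol 5941. Septoria tritici spores inoculated before or after treatment. Dew chambers, then 20 °C greenhouse. Percent disease control derived from severity (0–100%) relative to untreated plants.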

[2] = tested on: Puccinia triticina; Synonym: Puccinia recondite f. Sp. Tritici; test: Wheat Brown Rust (PUCCRT) disease control; format: in vivo; conditions: Puccinia triticina, topical
Outline: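 Brown rust on first-leaf Yuma wheat: spore inoculation before or after spray application (acetone/Triton X-100 solution, or EC with Trycol in track spray), overnight 100% RH at 22 °C, disease developed at 24 °C. Severity scored 0–100% and converted to percent control against untreated.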

[3] = 24 h, Wheat Leaf Blotch, 1 Day Protectant, rate 100 ppm (high volume application), read-out: Disease control SEPTTR 1 DP
[4] = 24 h, Wheat Leaf Blotch, 1 Day Protectant, rate 121.5 g/H (low volume application), read-out: Disease control SEPTTR 1 DP
[5] = 72 h, Wheat Leaf Blotch, 3 Day Curative, rate 121.5 g/H (low volume application), read-out: Disease control SEPTTR 3 DC
[6] = 24 h, Wheat Brown Rust, 1 Day Protectant, rate 100 ppm (high volume application), read-out: Disease control PUCCRT 1 DP
[7] = 24 h, Wheat Brown Rust, 1 Day Protectant, rate 121.5 g/H (low volume application), read-out: Disease control PUCCRT 1 DP
[8] = 72 h, Wheat Brown Rust, 3 Day Curative, rate 100 ppm (high volume application), read-out: Disease control PUCCRT 3 DC
[9] = 72 h, Wheat Brown Rust, 3 Day Curative, rate 121.5 g/H (low volume application), read-out: Disease control PUCCRT 3 DC
[10] = 24 h, 1 Day Protectant, rate 100 ppm, read-out: SEPTTR 1 DP disease control
[11] = 72 h, 3 Day Curative, rate 100 ppm, read-out: SEPTTR 3 DC disease control
[12] = 24 h, 1 Day Protectant, rate 100 ppm, read-out: PUCCRT 1 DP disease control
[13] = 72 h, 3 Day Curative, rate 100 ppm, read-out: PUCCRT 3 DC disease control
[14] = 24 h, 1 Day Protectant, rate 121.5 g/H, read-out: SEPTTR 1 DP disease control
[15] = 72 h, 3 Day Curative, rate 121.5 g/H, read-out: SEPTTR 3 DC disease control
[16] = 24 h, 1 Day Protectant, rate 121.5 g/H, read-out: PUCCRT 1 DP disease control
[17] = 72 h, 3 Day Curative, rate 121.5 g/H, read-out: PUCCRT 3 DC disease control

Compound | pest or weed control at 100 ppm [1, 10] [%] | pest or weed control at 100 ppm [1, 11] [%] | pest or weed control at 100 ppm [2, 12] [%] | pest or weed control at 100 ppm [2, 13] [%] | other results
COCCC(=O)Oc1c(OC)ccnc1C(=O)N[C@H]1CCC[C@H](Cc2ccc(OC)cc2)[C@@H](OCC2CC2)[C@H](C)OC1=O [Compound F195, 2-(((3S,7R,8R,9S)-8-(cyclopropylmethoxy)-7-(4-methoxybenzyl)-9-methyl-2-oxooxonan-3-yl)carbamoyl)-4-methoxypyridin-3-yl 3-methoxypropanoate] |  |  |  |  | pest or weed control at 100 ppm [1, 3]: 80 to 100%; pest or weed control at 121.5 g/ha [1, 4]: 80 to 100%; pest or weed control at 100 ppm ([1]; 72 h, Wheat Leaf Blotch, 3 Day Curative, rate 100 ppm (high volume application), read-out: Disease control SEPTTR 3 DC): 80 to 100%; pest or weed control at 121.5 g/ha [1, 5]: 80 to 100%; pest or weed control at 100 ppm [2, 6]: 80 to 100%; pest or weed control at 121.5 g/ha [2, 7]: 80 to 100%; pest or weed control at 100 ppm [2, 8]: 80 to 100%; pest or weed control at 121.5 g/ha [2, 9]: 0 to 80%
COc1ccnc(C(=O)N[C@H]2CCC[C@H](CCBr)[C@@H](Oc3ccccc3)[C@H](C)OC2=O)c1OCOC(C)=O [Compound F135] | 80 to 100 | 80 to 100 | 80 to 100 | 80 to 100 | 
COc1ccnc(C(=O)N[C@H]2CCC[C@H](CCC(C)C)[C@@H](OC)[C@H](C)OC2=O)c1O [Compound F7] | 80 to 100 | 80 to 100 | 80 to 100 | 0 to 80 | 
COc1ccnc(C(=O)N[C@H]2CCC[C@H](CC3CCCC3)[C@@H](OCC(C)C)[C@H](C)OC2=O)c1O [Compound F37] | 80 to 100 |  | 0 to 80 | 0 to 80 | 
COc1ccnc(C(=O)N[C@H]2CCC[C@H](Cc3ccccc3)[C@@H](OCC(C)C)[C@H](C)OC2=O)c1O [Compound F18] | 80 to 100 | 80 to 100 | 80 to 100 | 0 to 80 | 
COc1ccnc(C(=O)N[C@H]2CCC[C@H](Cc3ccccc3)[C@@H](OCC3CC3)[C@H](C)OC2=O)c1O [Compound F19] | 80 to 100 | 80 to 100 | 80 to 100 | 80 to 100 | 
COc1ccnc(C(=O)N[C@H]2CCC[C@H](CC3CCCCC3)[C@@H](OCC3CC3)[C@H](C)OC2=O)c1O [Compound F9, N-((3S,7R,8R,9S)-7-(cyclohexylmethyl)-8-(cyclopropylmethoxy)-9-methyl-2-oxooxonan-3-yl)-3-hydroxy-4-methoxypicolinamide] | 80 to 100 | 80 to 100 | 80 to 100 | 80 to 100 | 
COc1ccnc(C(=O)N[C@H]2CCC[C@H](CC(F)F)[C@@H](Oc3ccccc3)[C@H](C)OC2=O)c1O [Compound F53] | 80 to 100 | 0 to 80 | 80 to 100 | 80 to 100 | 
COc1ccc(C[C@H]2CCC[C@H](NC(=O)c3nccc(OC)c3O)C(=O)O[C@@H](C)[C@@H]2OCC(C)C)cc1 [Compound F32] | 80 to 100 | 80 to 100 | 80 to 100 | 0 to 80 | 
CCOCC(=O)Oc1c(OC)ccnc1C(=O)N[C@H]1CCC[C@H](CCF)[C@@H](OCC(C)C)[C@H](C)OC1=O [Compound F184] | 80 to 100 | 80 to 100 | 80 to 100 | 80 to 100 | 
COCC[C@H]1CCC[C@H](NC(=O)c2nccc(OC)c2O)C(=O)O[C@@H](C)[C@@H]1OCC(C)C [Compound F47] | 80 to 100 | 80 to 100 | 80 to 100 | 80 to 100 | 
CCO[C@@H]1[C@@H](Cc2ccccc2)CCC[C@H](NC(=O)c2nccc(OC)c2OCOC(C)=O)C(=O)O[C@H]1C [Compound F111] |  |  |  |  | pest or weed control at 121.5 g/ha [1, 14]: 80 to 100%; pest or weed control at 121.5 g/ha [1, 15]: 80 to 100%; pest or weed control at 121.5 g/ha [2, 16]: 80 to 100%; pest or weed control at 121.5 g/ha [2, 17]: 80 to 100%
CCOCC(=O)OCOc1c(OC)ccnc1C(=O)N[C@H]1CCC[C@H](CCOCC2CC2)[C@@H](OCC2CC2)[C@H](C)OC1=O [Compound F191] |  |  |  |  | pest or weed control at 100 ppm [1, 3]: 80 to 100%; pest or weed control at 121.5 g/ha [1, 4]: 0 to 80%; pest or weed control at 121.5 g/ha [1, 5]: 0 to 80%; pest or weed control at 100 ppm [2, 6]: 80 to 100%; pest or weed control at 121.5 g/ha [2, 7]: 80 to 100%; pest or weed control at 100 ppm [2, 8]: 80 to 100%; pest or weed control at 121.5 g/ha [2, 9]: 80 to 100%
COCCO[C@@H]1[C@@H](Cc2ccccc2)CCC[C@H](NC(=O)c2nccc(OC)c2O)C(=O)O[C@H]1C [Compound F24] | 80 to 100 | 80 to 100 | 80 to 100 | 80 to 100 | 
COc1ccc(C[C@H]2CCC[C@H](NC(=O)c3nccc(OC)c3O)C(=O)O[C@@H](C)[C@@H]2OC(=O)C2CCCC2)cc1 [Compound F28] | 80 to 100 | 0 to 80 | 80 to 100 |  | 
CCOCC(=O)OCOc1c(OC)ccnc1C(=O)N[C@H]1CCC[C@H](Cc2ccc(OC)cc2)[C@@H](OCC2CC2)[C@H](C)OC1=O [Compound F177] | 80 to 100 | 80 to 100 | 80 to 100 | 80 to 100 | pest or weed control at 121.5 g/ha [1, 14]: 80 to 100%; pest or weed control at 121.5 g/ha [1, 15]: 80 to 100%; pest or weed control at 121.5 g/ha [2, 16]: 80 to 100%; pest or weed control at 121.5 g/ha [2, 17]: 80 to 100%
COc1ccnc(C(=O)N[C@H]2CCC[C@H](CCC(C)C)[C@@H](Oc3ccccc3)[C@H](C)OC2=O)c1OCOC(C)=O [Compound F89] | 80 to 100 | 80 to 100 | 80 to 100 | 80 to 100 | pest or weed control at 121.5 g/ha [1, 14]: 80 to 100%; pest or weed control at 121.5 g/ha [1, 15]: 80 to 100%; pest or weed control at 121.5 g/ha [2, 16]: 80 to 100%; pest or weed control at 121.5 g/ha [2, 17]: 0 to 80%
COc1ccnc(C(=O)N[C@H]2CCC[C@H](CC3CCCC3)[C@@H](OCC3CC3)[C@H](C)OC2=O)c1OCOC(=O)C(C)C [Compound F154, ((2-(((3S,7R,8R,9S)-7-(cyclopentylmethyl)-8-(cyclopropylmethoxy)-9-methyl-2-oxooxonan-3-yl)carbamoyl)-4-methoxypyridin-3-yl)oxy)methyl isobutyrate] | 80 to 100 | 80 to 100 | 80 to 100 | 80 to 100 | pest or weed control at 121.5 g/ha [1, 14]: 80 to 100%; pest or weed control at 121.5 g/ha [1, 15]: 80 to 100%; pest or weed control at 121.5 g/ha [2, 16]: 80 to 100%; pest or weed control at 121.5 g/ha [2, 17]: 80 to 100%
COc1ccnc(C(=O)N[C@H]2CCC[C@H](CCC(C)C)[C@@H](Oc3ccccc3)[C@H](C)OC2=O)c1O [Compound F1] | 80 to 100 | 80 to 100 | 80 to 100 | 0 to 80 | 
COc1ccc(C[C@H]2CCC[C@H](NC(=O)c3nccc(OC)c3OCOC(C)=O)C(=O)O[C@@H](C)[C@@H]2OCC2CC2)cc1 [Compound F116] | 80 to 100 | 80 to 100 | 80 to 100 | 80 to 100 | pest or weed control at 121.5 g/ha [1, 14]: 80 to 100%; pest or weed control at 121.5 g/ha [1, 15]: 80 to 100%; pest or weed control at 121.5 g/ha [2, 16]: 80 to 100%; pest or weed control at 121.5 g/ha [2, 17]: 80 to 100%
COc1ccc(C[C@H]2CCC[C@H](NC(=O)c3nccc(OC)c3O)C(=O)O[C@@H](C)[C@@H]2Oc2ccccc2)cc1 [Compound F26] | 80 to 100 | 80 to 100 | 80 to 100 | 0 to 80 | 
